# Test results reported in patent publication US10336762B2 (priority 2017, dated 2019).
# Like-named read-outs stand apart in the source and are kept apart here.
# Key:
# TNFα = test: cells; assay type: cell-based, human; settings: Homo sapiens, Monocyte, LPS-stimulated human monocytes, read-out: EC50 TNF
# IRAK4 enzyme = IRAK4 enzyme (Homo sapiens (Human), UniProt Q9NWZ3); test: biochemical; assay type: biochemical; settings: IRAK4 enzyme, 500 μM ATP
# Chain of IRAK4 enzyme (Q9NWZ3 whole entry): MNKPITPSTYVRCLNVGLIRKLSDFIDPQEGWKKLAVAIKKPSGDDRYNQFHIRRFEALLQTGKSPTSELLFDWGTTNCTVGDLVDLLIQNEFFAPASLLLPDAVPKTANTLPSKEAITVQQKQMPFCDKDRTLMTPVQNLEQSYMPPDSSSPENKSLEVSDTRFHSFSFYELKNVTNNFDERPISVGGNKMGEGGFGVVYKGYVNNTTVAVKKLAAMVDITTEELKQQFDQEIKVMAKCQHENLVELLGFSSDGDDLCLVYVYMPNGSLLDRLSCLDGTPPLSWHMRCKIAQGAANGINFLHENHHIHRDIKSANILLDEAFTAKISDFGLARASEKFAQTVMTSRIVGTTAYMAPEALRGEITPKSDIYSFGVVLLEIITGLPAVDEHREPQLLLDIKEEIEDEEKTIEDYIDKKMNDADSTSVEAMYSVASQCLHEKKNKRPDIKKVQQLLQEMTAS
SMILES,EC50 (TNFα; TNFα content) [nM],IC50 (IRAK4 enzyme; TR-FRET) [nM],IC50 (IRAK4 enzyme; TR-FRET (HTRF)) [nM],EC50 (TNFα; TNFα by TR-FRET) [nM]
"CC(C)(O)[C@H](F)CNC(=O)c1cnc(-c2ccc3cc(C#N)cnn23)cc1Nc1ccc(-c2cn[nH]c2)nc1 [Example 172, (R)-4-((6-(1H-pyrazol-4-yl)pyridin-3-yl)amino)-6-(3-cyanopyrrolo[1,2-b]pyridazin-7-yl)-N-(2-fluoro-3-hydroxy-3-methylbutyl) nicotinamide]",76,< 1,,
"CC(C)(O)[C@H](F)CNC(=O)c1cnc(-c2ccc3cc(C#N)cnn23)cc1NC1CC2(CNC(=O)O2)C1 (stereo partly drawn) [Example 763, (R)-6-(3-cyanopyrrolo[1,2-b]pyridazin-7-yl)-N-(2-fluoro-3-hydroxy-3-methylbutyl)-4-((6-oxo-5-oxa-7-azaspiro[3.4]octan-2-yl)amino)nicotinamide]",155,,< 1,
"CC(C)(O)[C@H](F)CNC(=O)c1cnc(-c2ccc3cc(C#N)cnn23)cc1N[C@H]1C[C@H](CNC(=O)[C@@H]2CC2(F)F)C1 [Example 699, 6-(3-cyanopyrrolo[1,2-b]pyridazin-7-yl)-4-(((1S,3R)-3-(((S)-2,2-difluorocyclopropane-1-carboxamido)methyl)cyclo-butyl)amino)-N-((R)-2-fluoro-3-hydroxy-3-methylbutyl)nicotinamide]",36,,< 1,
"[2H]C([2H])([2H])OC(=O)NC[C@H]1C[C@H](Nc2cc(-c3ccc4cc(C#N)cnn34)ncc2C(=O)NC[C@@H](F)C(C)(C)O)C1 [Example 867, methyl-d3 (((1R,3r)-3-((2-(3-cyanopyrrolo[1,2-b]pyridazin-7-yl)-5-(((R)-2-fluoro-3-hydroxy-3-methylbutyl)carbamoyl)pyridin-4-yl)amino)cyclo-butyl)methyl)carbamate]",,< 1,,6
"CC(=O)NC12CC(NC(=O)c3cnc(-c4ccc5cc(C#N)cnn45)cc3NC(C)C)(C1)C2 [Example 132, N-(3-acetamidobicyclo [1.1.1]pentan-1-yl)-6-(3-cyanopyrrolo[1,2-b]pyridazin-7-yl)-4-(isopropylamino) nicotinamide]",222,5,,
"CC(C)(O)[C@H](F)CNC(=O)c1cnc(-c2ccc3cc(C#N)cnn23)cc1N[C@H]1CC[C@H](NS(C)(=O)=O)CC1 [Example 315, 6-(3-cyanopyrrolo[1,2-b]pyridazin-7-yl)-N-((R)-2-fluoro-3-hydroxy-3-methylbutyl)-4-(((1r,4R)-4-(methylsulfonamido)cyclohexyl)amino)nicotinamide]",59,< 1,,
"CNC(=O)c1cnc(-c2ccc3cc(C#N)cnn23)cc1NC(C)C [Example 38, 6-(3-cyanopyrrolo[1,2-b]pyridazin-7-yl)-4-(isopropylamino)-N-methylnicotinamide]",91,2,,
"CC(C)(O)[C@H](F)CNC(=O)c1cnc(-c2ccc3cc(C#N)cnn23)cc1Nc1cncc(C2CC2)c1 [Example 222, (R)-6-(3-cyanopyrrolo[1,2-b]pyridazin-7-yl)-4-((5-cyclopropylpyridin-3-yl)amino)-N-(2-fluoro-3-hydroxy-3-methylbutyl)nicotinamide]",151,1,,
"CC(C)(O)[C@H](F)CNC(=O)c1cnc(-c2ccc3cc(C#N)cnn23)cc1Nc1ccc(-c2cc[nH]n2)cc1 [Example 177, (R)-4-((4-(1H-pyrazol-3-yl)phenyl)amino)-6-(3-cyanopyrrolo[1,2-b]pyridazin-7-yl)-N-(2-fluoro-3-hydroxy-3-methylbutyl)nicotinamide]",29,< 1,,
"CN1CCN(C(=O)NC[C@H]2C[C@H](Nc3cc(-c4ccc5cc(C#N)cnn45)ncc3C(=O)NC[C@@H](F)C(C)(C)O)C2)CC1 [Example 793, N-(((1R,3r)-3-((2-(3-cyanopyrrolo[1,2-b]pyridazin-7-yl)-5-(((R)-2-fluoro-3-hydroxy-3-methylbutyl)carbamoyl)pyridin-4-yl)amino)cyclobutyl)methyl)-4-methylpiperazine-1-carboxamide]",598,,3,
"CC(C)(O)[C@H](F)CNC(=O)c1cnc(-c2ccc3cc(C#N)cnn23)cc1Nc1ccc(Cl)nc1 [Example 965, (R)-4-((6-chloropyridin-3-yl)amino)-6-(3-cyanopyrrolo[1,2-b]pyridazin-7-yl)-N-(2-fluoro-3-hydroxy-3-methylbutyl)nicotinamide]",,< 1,,26
"CC(C)(O)[C@H](F)CNC(=O)c1cnc(-c2ccc3cc(C#N)cnn23)cc1Nc1ccc(-n2ncnn2)cc1 [Example 176, (R)-4-((4-(2H-tetrazol-2-yl)phenyl)amino)-6-(3-cyanopyrrolo[1,2-b]pyridazin-7-yl)-N-(2-fluoro-3-hydroxy-3-methylbutyl)nicotinamide]",> 10000,1,,
"N#Cc1cnn2c(-c3cc(NC45CCC(O)(CC4)CC5)c(C(=O)NC4(C(F)F)CC4)cn3)ccc2c1 [Example 951, 6-(3-cyanopyrrolo[1,2-b]pyridazin-7-yl)-N-(1-(difluoromethyl)cyclopropyl)-4-((4-hydroxybicyclo[2.2.2]octan-1-yl)amino) nicotinamide]",,2,,159
"CC(C)(O)[C@H](F)CNC(=O)c1cnc(-c2ccc3cc(C#N)cnn23)cc1NC1CCC2(CCC(=O)N2)CC1 (stereo partly drawn) [Example 832, 6-(3-cyanopyrrolo[1,2-b]pyridazin-7-yl)-N-((R)-2-fluoro-3-hydroxy-3-methylbutyl)-4-(((5R,8r)-2-oxo-1-azaspiro[4.5]decan-8-yl)amino) nicotinamide]",,1,,132
"COC(=O)c1cncc(Nc2cc(-c3ccc4cc(C#N)cnn34)ncc2C(=O)NC[C@@H](F)C(C)(C)O)c1 [Example 594, (R)-methyl 5-((2-(3-cyanopyrrolo[1,2-b]pyridazin-7-yl)-5-((2-fluoro-3-hydroxy-3-methylbutyl)carbamoyl)pyridin-4-yl)amino) nicotinate]",316,,2,
"CC(C)(O)[C@H](F)CNC(=O)c1cnc(-c2ccc3cc(C#N)cnn23)cc1Nc1ccc(N2CCOCC2)nc1 [Example 673, (R)-6-(3-cyanopyrrolo[1,2-b]pyridazin-7-yl)-N-(2-fluoro-3-hydroxy-3-methyl-butyl)-4-((6-morpholino-pyridin-3-yl)amino) nicotinamide]",19,,< 1,
"N#CCNC(=O)c1cnc(-c2ccc3cc(C#N)cnn23)cc1NC1COC1 [Example 460, N-(cyanomethyl)-6-(3-cyanopyrrolo[1,2-b]pyridazin-7-yl)-4-(oxetan-3-ylamino) nicotinamide]",71,,< 1,
"COC(=O)N1Cc2ccc(Nc3cc(-c4ccc5cc(C#N)cnn45)ncc3C(=O)NC[C@@H](F)C(C)(C)O)cc2C1 [Example 196, (R)-methyl 5-((2-(3-cyanopyrrolo[1,2-b]pyridazin-7-yl)-5-((2-fluoro-3-hydroxy-3-methylbutyl)carbamoyl)pyridin-4-yl)amino)isoindoline-2-carboxylate]",53,2,,
"CC(C)COC(=O)N[C@H]1CC[C@H](Nc2cc(-c3ccc4cc(C#N)cnn34)ncc2C(=O)NC[C@@H](F)C(C)(C)O)CC1 [Example 290, isobutyl ((1R,4r)-4-((2-(3-cyanopyrrolo[1,2-b]pyridazin-7-yl)-5-(((R)-2-fluoro-3-hydroxy-3-methylbutyl)carbamoyl)pyridin-4-yl)amino)cyclohexyl)carbamate]",121,1,,
"CC1(C)CC(Nc2cc(-c3ccc4cc(C#N)cnn34)ncc2C(=O)NC[C@@H](F)C(C)(C)O)CCO1 (stereo partly drawn) [Example 81, 6-(3-cyanopyrrolo[1,2-b]pyridazin-7-yl)-4-((2,2-dimethyltetrahydro-2H-pyran-4-yl)amino)-N-((R)-2-fluoro-3-hydroxy-3-methylbutyl) nicotinamide]",134,1,,
"COC(=O)NC1CCC(NC(=O)c2cnc(-c3ccc4cc(C#N)cnn34)cc2N[C@H]2CC[C@H](NC(=O)OC)CC2)CC1 (stereo partly drawn) [Example 300, methyl ((1R,4r)-4-(6-(3-cyanopyrrolo[1,2-b]pyridazin-7-yl)-4-(((1r,4R)-4-((methoxycarbonyl)amino)cyclohexyl)amino)nicotinamido)cyclohexyl) carbamate]",75,1,,
"CC(C)(O)[C@H](F)CNC(=O)c1cnc(-c2ccc3cc(C#N)cnn23)cc1Nc1cncc(OC(F)F)c1 [Example 217, (R)-6-(3-cyanopyrrolo[1,2-b]pyridazin-7-yl)-4-((5-(difluoromethoxy)pyridin-3-yl)amino)-N-(2-fluoro-3-hydroxy-3-methylbutyl)nicotinamide]",63,< 1,,
"CC(C)Nc1cc(-c2ccc3cc(C#N)cnn23)ncc1C(=O)NC1CC2(C1)CC(C)(O)C2 (stereo not shown) [Example 153, 6-(3-cyanopyrrolo[1,2-b]pyridazin-7-yl)-N-(6-hydroxy-6-methylspiro[3.3]heptan-2-yl)-4-(isopropylamino)nicotinamide]",91,< 1,,
"CC(=O)Nc1nc(NC(=O)c2cnc(-c3ccc4cc(C#N)cnn34)cc2NC(C)C)cs1 [Example 493, N-(2-acetamidothiazol-4-yl)-6-(3-cyanopyrrolo[1,2-b]pyridazin-7-yl)-4-(isopropylamino)nicotinamide]",> 10000,,12,
"CC(C)(O)[C@H](F)CNC(=O)c1cnc(-c2ccc3cc(C#N)cnn23)cc1NC1COC1 [Example 54, (R)-6-(3-cyanopyrrolo[1,2-b]pyridazin-7-yl)-N-(2-fluoro-3-hydroxy-3-methylbutyl)-4-(oxetan-3-ylamino)nicotinamide]",26,< 1,,
"CCOc1nccc(Nc2cc(-c3ccc4cc(C#N)cnn34)ncc2C(=O)NC[C@@H](F)C(C)(C)O)n1 [Example 848, (R)-6-(3-cyanopyrrolo[1,2-b]pyridazin-7-yl)-4-((2-ethoxypyrimidin-4-yl)amino)-N-(2-fluoro-3-hydroxy-3-methylbutyl) nicotinamide]",,2,,112
